Data as given in US6641811B1, “Use of angiotensin II inhibitors to prevent malignancies associated with immunosuppression” (Cornell Research Foundation, Inc., priority 2000, dated 2003).

How the values were obtained:
Format in all cases: in vivo
pulmonary metastasis = experiment: Tumor progression / development of pulmonary metastasis in experimental animals (Example 2)
[1] = tested on: human bladder cancer cells (T24); experiment: Pulmonary metastases of T24 human bladder cancer cells injected via tail vein into SCID-beige mice; conditions: for Number of metastases (mean ± SEM), T-24, with Enalapril: enalapril 10 mg/kg intraperitoneal twice a day, alone or with Cyclosporine 20 mg/kg or FK506 4 mg/kg every other day; for Incidence of tumors as compared to controls: summary of Table I (T24 and Renca) and Example 3 (T-24), in the absence of immunosuppressive agent
Protocol: (§1) In vivo tumor growth. Murine renal cell adenocarinoma cells (1×10^5 in Hanks balanced salt solution), murine Lewis lung carcinoma cells (1×10^5 cells), or human bladder cancer cells (1×10^5 cells) are injected via the tail vein into 6-wk old male SCID-beige mice. […] On day 19 or 23 post tumor inoculation, mice are killed and the number of pulmonary metastases is determined […] endotracheal insufflation of lungs with 15% India ink solution and bleaching the harvested lungs in Fekete's solution.
(§2) SCID-beige (immunodeficient) mice were inoculated with human bladder cancer cells (T24) or murine renal cancer cells (Renca). Tumor bearing mice were then treated with cyclosporin A or the angiotensin II receptor blocker, losartan or both.
(§3) Tumor cells (1×10^5 in HBSS) were injected via the tail vein into SCID-beige mice. […] The mice were sacrificed on day 19 (Renca) and day 23 (T24) and the number of metastases was counted as described (reference 7).

[2] = tested on: murine renal cancer cells (Renca); experiment: Pulmonary metastases of Renca murine renal cancer cells injected via tail vein into SCID-beige mice; conditions: 1×10^5 Renca cells via tail vein, sacrificed day 19, CsA 20 mg/kg SQ QOD, Losartan 10 mg/kg SQ BID, untreated 125 ± 22
Protocol: as §1, with “solution. The effect of angiotensin II inhibitors and anti-angiotensin II mAbs and the control IgG1 mAbs on CsA-induced increase in the number of pulmonary metastases is determined by intraperitoneal administration of 200 μg of mAbs, on a daily basis starting from day −1 to day 19 post tumor inoculation.” for “solution.”
as §2, §3

[3] = SCID beige mice, 100,000 T-24 cells by tail vein

| Compound | Effect on development of pulmonary metastasis (pulmonary metastasis) | Number of metastases (mean ± SEM), T-24, with Enalapril [1, 3] | Incidence of tumors as compared to controls [1] | Number of metastases (mean ± SEM), T-24, without Enalapril ([1]; SCID beige mice, 100,000 T-24 cells by tail vein, Cyclosporine 20 mg/kg or FK506 4 mg/kg every other day, no enalapril, untreated 38 ± 4) | Number of Pulmonary Metastases (Mean ± SEM), Renca [2] | Number of Pulmonary Metastases (Mean ± SEM), T24 ([1]; SCID-beige mice, 1×10^5 T24 cells via tail vein, sacrificed day 23, CsA 20 mg/kg SQ QOD, Losartan 10 mg/kg SQ BID, untreated 25 ± 7) |
| --- | --- | --- | --- | --- | --- | --- |
| CCOC(=O)[C@H](CCc1ccccc1)N[C@@H](C)C(=O)N1CCC[C@H]1C(=O)O [Enalapril] | prevented the development of pulmonary metastasis | 21 ± 3 | reduces the incidence of tumors as compared to controls | – | – | – |
| C=CC[C@@H]1/C=C(\C)C[C@H](C)C[C@H](OC)[C@H]2O[C@@](O)(C(=O)C(=O)N3CCCC[C@H]3C(=O)O[C@H](/C(C)=C/[C@@H]3CC[C@@H](O)[C@H](OC)C3)[C@H](C)[C@@H](O)CC1=O)[C@H](C)C[C@@H]2OC [FK506] | – | 30 ± 2 | – | 72 ± 21 | – | – |
| CCCCc1nc(Cl)c(CO)n1Cc1ccc(-c2ccccc2-c2nn[nH]n2)cc1 [Losartan] | – | – | reduces the incidence of tumors as compared to controls | – | 67 ± 15 | 12 ± 3 |
